In US11505574B2, “Modulation of P53 for the treatment of cancer” (THE REGENTS OF THE UNIVERSITY OF CALIFORNIA, priority 2016, dated 2022):

Legend:
HaCaT cells = assay: HaCaT cell colony formation assay; format: cell-based; conditions: HaCaT cells (mutant p53); 10 μM for 20 minutes then 0.5 ng/mL doxorubicin 18 hours (FIG. 37D)
Method: For the experiments shown in FIG. 37D, HaCaT and MiaPaCa2 cells were grown in 6-well plates at 500 cells per well. The following day, 10 μM Pen-Ctrl (SEQ ID NO:10), Pen-Pep23 (SEQ ID NO:9), or Pen-Pep8 (SEQ ID NO:50) were added to the cells for 20 minutes followed by treatment with 0.5 ng/mL doxorubicin (for HaCaT cells) or 0.25 ng/mL doxorubicin (for miaPaCa2 cells) for 18 hours, then the media was changed to fresh DMEM. After colonies formed they were fixed (i.e., using 7:1 MeOH:glacial acetic acid) and stained with crystal violet.

[1] = system: MIA-PaCa-2 pancreatic cancer cells; assay: MIA-PaCa-2 cell colony formation assay (peptides); format: cell-based, human; conditions: miaPaCa2 cells (mutant p53); 10 μM for 20 minutes then 0.25 ng/mL doxorubicin 18 hours (FIG. 37D)
Excerpt: […] […] After colonies formed they were fixed (i.e., using 7:1 MeOH:glacial acetic acid) and stained with crystal violet.

[2] = target: T1, eIF4E association with p53 mRNA (Homo sapiens, UniProt P06730); assay: RNA-ChIP assay in RKO cells; format: cell-based; conditions: 1.5 μM, 2 hours, versus Pen-Ctrl (FIG. 33A)
T1 construct: endogenous in cells; host or cells: RKO cells
Method: RNA-ChIP assays were performed to examine how peptides of the present invention affect eIF4E association with p53 mRNA (FIG. 33). For the experiments shown in FIG. 33A, 4 10 cm plates were seeded with 2×10^6 RKO cells the night before. The next morning 2 plates were treated with 1.5 μM Pen-Ctrl (SEQ ID NO:10) and 2 plates were treated with 1.5 μM Pen-Pep8 (SEQ ID NO:50) for 2 hours. RKO cells were harvested in 1 mL per plate polysome lysis buffer, then centrifuged at 16,000×G for 15 minutes in a microcentrifuge at 4° C. The supernatant was pooled from all aliquots and transferred to a 15 ml tube. Equilibration was performed with 50% protein A-agarose slurry in polysome lysis buffer by washing twice with 0.5 mL of polysome lysis buffer and then restoring the original volume with lysis buffer. 3×200 μL tubes of agarose. For preclearing, one aliquot of equilibrated protein A-agarose beads was added to the lysate (50 μL of 50% agarose per 1 mL lysate) and incubated with rotation at 4° C. for 1 hour. Lysate was divided into microcentrifuge tubes and centrifuged briefly for 30 seconds to collect beads. Supernatant was pooled and transferred to a new 15 mL tube. After repeating the preclearing and bead collection steps, lysate was divided into 1 mL aliquots (i.e., 2×1 mL Pen-Ctrl and 2×1 mL Pen-Pep8). […]

p-eIF4E (Ser209) = assay: Western blot for p-eIF4E (Ser209) in RKO, MCF7 and miaPaCa2 cells; format: cell-based
Method: For the experiments shown in FIG. 37A, RKO cells were plated at a seed density of 1×10^5 cells per well in 12-well plates the night before the addition of peptides. For PEP1 (SEQ ID NO:13) plus Ctrl (SEQ ID NO:11), Pep8 (SEQ ID NO:1), Pep8-SR (SEQ ID NO:53), and Pep8-SK (SEQ ID NO:52), 375 nM of peptide was added to […] PEP1 in 100 μL serum-free DMEM for 20 minutes before being added to the cells for 18 hours. After 18 hours, cells were harvested with 1×SDS-lysis buffer (150 μL) and then lysate was run on a 10% SDS-PAGE gel followed by Western blotting for p53, p-eIF4E (Ser209), and actin.
For the experiments shown in FIG. 37B, MCF7 cells were grown the night before in a 6-well plate seeded with 2×10^5 cells. The next day cells were treated with 2.5 μM Pen-Ctrl (SEQ ID NO:10) or Pen-Pep8 (SEQ ID NO:50) for 18 hours. The following day, the cells were lysed with 1×SDS-lysis buffer (250 μL) and lysate was run on a 10% SDS-PAGE gel. 20 μl was loaded per well followed by Western blot for p-eIF4E (Ser-209), p53, and actin.
For the experiments shown in FIG. 37C, 2×10^5 miaPaCa2 cells per well were plated the day before in a 6-well plate. The following day, the cells were treated with 2.5 μM Pen-Ctrl (SEQ ID NO:10) or Pen-Pep8 (SEP ID NO:50) for 30 minutes then treated with 6.25 ng/mL doxorubicin for 18 hours. […]

T1 sequence (P06730 2-217 limits assumed): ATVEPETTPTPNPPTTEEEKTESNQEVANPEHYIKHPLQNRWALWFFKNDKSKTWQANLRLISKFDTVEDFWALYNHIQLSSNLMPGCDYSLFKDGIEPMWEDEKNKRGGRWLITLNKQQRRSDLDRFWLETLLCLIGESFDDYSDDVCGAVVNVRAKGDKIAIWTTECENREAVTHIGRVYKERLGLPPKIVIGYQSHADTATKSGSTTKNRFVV

In the case of “RQIKIWFQNRRMKWKKYPYAASPA [Pen-Pep8, Penetratin fused to Pep8]”, the “colony formation, sensitization to low-dose doxorubicin” value (HaCaT cells) is reported as “sensitized to low-dose doxorubicin”, the “colony formation, sensitization to low-dose doxorubicin” value [1] is reported as “sensitized to low-dose doxorubicin” and the “eIF4E association with p53 mRNA (RNA-ChIP)” value [2] is reported as “increased eIF4E association with p53 mRNA”. For the same sequence, the “p-eIF4E (Ser-209) level (Western blot)” value (p-eIF4E (Ser209); MCF7 cells, 2.5 μM, 18 hours (FIG. 37B)) was “reduced p-eIF4E” and the “p-eIF4E (Ser209) level (Western blot)” value (p-eIF4E (Ser209); miaPaCa2 cells, 2.5 μM for 30 minutes then 6.25 ng/mL doxorubicin 18 hours (FIG. 37C)) was “substantial decrease in p-eIF4E”.
